From ChEMBL document CHEMBL2074366, “Secretion of sparfloxacin from the human intestinal Caco-2 cell line is altered by P-glycoprotein inhibitors” (Antimicrob Agents Chemother, 1998)

Target: ATP-dependent translocase ABCB1 (Homo sapiens, UniProt P08183)
Assay: TP_TRANSPORTER: transepithelial transport (basal to apical) in Caco-2 cells
Assay type: functional, cell-based

Sequence of ATP-dependent translocase ABCB1 (P08183 whole entry): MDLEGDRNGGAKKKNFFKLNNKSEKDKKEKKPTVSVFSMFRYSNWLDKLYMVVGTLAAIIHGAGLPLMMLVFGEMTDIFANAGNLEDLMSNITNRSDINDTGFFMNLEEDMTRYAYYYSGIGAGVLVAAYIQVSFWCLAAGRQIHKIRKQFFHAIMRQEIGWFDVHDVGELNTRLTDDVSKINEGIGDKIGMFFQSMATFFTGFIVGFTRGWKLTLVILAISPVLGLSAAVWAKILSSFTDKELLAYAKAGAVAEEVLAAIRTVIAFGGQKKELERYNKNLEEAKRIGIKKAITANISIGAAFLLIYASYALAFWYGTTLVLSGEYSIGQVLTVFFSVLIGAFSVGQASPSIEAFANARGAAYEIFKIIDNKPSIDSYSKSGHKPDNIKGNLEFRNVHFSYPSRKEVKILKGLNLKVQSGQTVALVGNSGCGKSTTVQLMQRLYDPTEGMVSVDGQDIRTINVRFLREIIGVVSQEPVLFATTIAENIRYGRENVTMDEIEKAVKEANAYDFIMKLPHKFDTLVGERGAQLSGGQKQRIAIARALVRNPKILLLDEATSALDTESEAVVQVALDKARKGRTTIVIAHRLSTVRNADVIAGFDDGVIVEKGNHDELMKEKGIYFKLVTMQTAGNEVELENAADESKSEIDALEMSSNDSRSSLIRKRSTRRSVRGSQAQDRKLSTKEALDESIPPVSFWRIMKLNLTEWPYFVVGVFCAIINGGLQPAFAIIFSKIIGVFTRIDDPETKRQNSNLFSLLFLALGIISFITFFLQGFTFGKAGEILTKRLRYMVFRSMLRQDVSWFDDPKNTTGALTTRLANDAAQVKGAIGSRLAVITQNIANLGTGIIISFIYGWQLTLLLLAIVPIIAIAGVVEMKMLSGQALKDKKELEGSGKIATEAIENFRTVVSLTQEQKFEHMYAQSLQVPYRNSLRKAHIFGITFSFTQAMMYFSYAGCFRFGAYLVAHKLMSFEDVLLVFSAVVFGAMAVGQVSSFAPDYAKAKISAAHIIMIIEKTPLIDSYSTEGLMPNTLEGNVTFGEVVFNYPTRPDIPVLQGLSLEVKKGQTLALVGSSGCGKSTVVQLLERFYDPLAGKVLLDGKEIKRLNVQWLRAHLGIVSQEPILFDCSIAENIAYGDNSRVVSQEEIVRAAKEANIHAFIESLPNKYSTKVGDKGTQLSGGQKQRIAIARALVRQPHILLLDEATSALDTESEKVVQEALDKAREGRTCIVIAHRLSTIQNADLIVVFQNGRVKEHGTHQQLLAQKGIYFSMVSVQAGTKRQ

Compound: C[C@@H]1CN(c2c(F)c(N)c3c(=O)c(C(=O)O)cn(C4CC4)c3c2F)C[C@H](C)N1 [SPARFLOXACIN]
- Activity: substrate [+]
